# Test results taken from US8030004B2, “Cell free screening assay and methods of use” (Oregon Health & Science University, priority 2005, dated 2011).
# “Also recorded” adds a separate entry of the source.
# Assays:
# Assay type in all cases: biochemical
# xFANCM = experiment: Xenopus egg cell free extract: xFANCM mobility shift (phosphorylation) upon addition of DNA, immunoblot; conditions: natural product screen membranes reprobed with xFANCM antibody (FIG. 7B)
# Description: 10 ul Xenopus egg extracts was combined with 0.5 ul compound (10 mM) or curcumin (control, 23 uM) then 0.5 ul plasmid DNA (pBluescript, 3.4 ug/ul) was added. The sample was incubated for 45 min at room temperature, then 60 ul of 1×SDS loading buffer. After incubation at 95° C. for 10 min, samples were resolved onto a NUPAGE™ 3-8% tris-acetate gradient gel (Invitrogen) and transferred onto a PVDF membrane (Immobilon P, Millipore).
# Of the 235 compounds tested 7 (NP-A3, NP-A7, NP-D8, NP-E3, NP-F2, NP-F8, NP-H8) were positive for modulation of xFANCD2 activation (see FIG. 14). Membranes initially probed with xFANCD2 antibody were reprobed with xFANCM antibody. […] Thus xFANCM can be used as an indicator of Fanconi anemia pathway activation.
# xFANCA, xFANCF, xFANCD2 = experiment: Chromatin binding of xFA proteins in replicating S-phase Xenopus egg extracts with sperm chromatin; conditions: for chromatin binding of xFA proteins (xFANCA, xFANCF, xFANCD2): replicating S-phase extracts with sperm chromatin
# Description: Following replication (60 minutes), chromatin was re-isolated and the same blot was assayed in series for the presence of the xFA proteins indicated. A non-specific band is indicated (asterisk) as a loading control. […] A replication assay was performed to monitor incorporation of α-^32P-GTP during one round of replication in extracts treated as indicated. Total amounts of replication products at 60 minutes following addition of sperm chromatin to non-treated or treated extracts were analyzed by agarose gel electrophoresis and exposure to X-ray film. Band density percentages were determined using a BioRad Molecular PhosphorImager Fx (Kodak screens, Quantity-1 software). […] 1000 sperm pronuclei/ul were added to replicating extracts containing different concentrations of MMC (lanes 3-9). Extracts were otherwise untreated or contained caffeine (lanes 6+7) or a neutralizing anti-xATR antibody (lanes 8+9). MMC-concentrations: 150 μM (lanes 3, 6, 8), 50 μM (lanes 4, 7, 9), or 5 μM (lane 5). […] Sperm chromatin was added to S-phase egg extracts. Xenopus egg extracts were either untreated (−) or aphidicolin was added (+) at the indicated time points following addition of sperm DNA: 0 minutes, pre-nuclear membrane formation; 30 minutes, beginning of replication; 60 minutes, mid-replication; 90 minutes late/post-replication; and 120 minutes, post replication. All chromatin fractions were re-isolated at 135 minutes following addition of sperm DNA, analyzed by SDS-PAGE and immunoblotted as indicated. […] Xenopus egg extracts were treated with beads coupled to preimmune serum (lanes 2, 3, and 5) or beads coupled to anti-xATRIP serum (lanes 1, 4, and 6). Sperm chromatin was added to preimmune or xATRIP depleted extracts and allowed to replicate. Xenopus egg extracts were either untreated or supplemented with aphidicolin (added at 50 minutes following addition of sperm DNA). Chromatin fractions were re-isolated at 70 minutes and assayed for the presence of xFANCD2, xFANCA, xATRIP and xORC-2 by immunoblotting. […]
# xFANCD2 = experiment: Induction of xFANCD2-L by circular plasmid dsDNA in Xenopus egg cell free extracts, immunoblot; conditions: for induction of xFANCD2-L in the presence of circular plasmid DNA: 200 ng/ul circular plasmid dsDNA, etoposide 30 or 60 uM, ICRF-193 150 or 300 uM
# Description: FIG. 13A is a digital image of an immunoblot showing Xenopus egg cell free extracts that were incubated with 160 ng/ul circular plasmid dsDNA for 30 min in the presence or absence of the replication initiation inhibitor geminin. Efficiency of replication inhibition was measured by performing a parallel replication assay using an aliquot of the geminin-treated extract (smaller panel in figure FIG. 13A). FIG. 13B is a digital image of an immunoblot showing that non-activated, M-phase egg extracts or CaCl2-activated, S-phase egg extracts were incubated with 160 ng/ul circular plasmid dsDNA. Extract aliquots (1 ul) were taken at the indicated time points and analyzed for xFANCD2 and xMre11. […] FIG. 13C is a digital image of an immunoblot showing Xenopus egg cell free extracts that were incubated with 160 ng/ul circular plasmid dsDNA for 30 min in the presence or absence of the checkpoint kinase inhibitor caffeine. Where indicated, extracts were supplemented with the phosphatase inhibitor, tautomycin, to stabilize xMre11-PPP. Following incubation, 1 ul of extract was analyzed for xFANCD2 and xMre11 by immunoblot. DNA-free extract was used as a size control for xFANCD2-S and xMre11 (lane 1). FIG. 13D is a digital image of an immunoblot showing Xenopus egg cell free extracts that were incubated either with bead-coupled anti-xATRIP antibody or with bead-coupled pre-immune serum and incubated with 200 ng/ul circular plasmid dsDNA. Aliquots were taken at different time points and assayed for xFANCD2 by immunoblot. 1 ul of DNA-free extract was used as a size control for xFANCD2-S (lane 5). […] Xenopus egg cell free extracts containing 200 ng/ul of circular plasmid dsDNA were incubated with etoposide (30 uM, lane 2; 60 uM, lane 3) or ICRF-193 (150 uM, lane 4; 300 uM, lane 5). Xenopus egg cell free extracts containing 200 ng/ul of circular plasmid dsDNA but not topoisomerase IIα inhibitor were used as positive control and DNA-free extracts were used as negative control for induction of xFANCD2-L. […]
# xMre11 = experiment: Induction of xMre11-PPP by plasmid DNA in Xenopus egg cell free extracts, immunoblot
# Description: FIG. 13A is a digital image of an immunoblot showing Xenopus egg cell free extracts that were incubated with 160 ng/ul circular plasmid dsDNA for 30 min in the presence or absence of the replication initiation inhibitor geminin. Efficiency of replication inhibition was measured by performing a parallel replication assay using an aliquot of the geminin-treated extract (smaller panel in figure FIG. 13A). FIG. 13B is a digital image of an immunoblot showing that non-activated, M-phase egg extracts or CaCl2-activated, S-phase egg extracts were incubated with 160 ng/ul circular plasmid dsDNA. Extract aliquots (1 ul) were taken at the indicated time points and analyzed for xFANCD2 and xMre11. […] FIG. 13C is a digital image of an immunoblot showing Xenopus egg cell free extracts that were incubated with 160 ng/ul circular plasmid dsDNA for 30 min in the presence or absence of the checkpoint kinase inhibitor caffeine. Where indicated, extracts were supplemented with the phosphatase inhibitor, tautomycin, to stabilize xMre11-PPP. Following incubation, 1 ul of extract was analyzed for xFANCD2 and xMre11 by immunoblot. DNA-free extract was used as a size control for xFANCD2-S and xMre11 (lane 1). […]
# DNA replication = DNA replication assay of sperm chromatin in S-phase Xenopus egg extracts
# Description: Following replication (60 minutes), chromatin was re-isolated and the same blot was assayed in series for the presence of the xFA proteins indicated. A non-specific band is indicated (asterisk) as a loading control. […] A replication assay was performed to monitor incorporation of α-^32P-GTP during one round of replication in extracts treated as indicated. Total amounts of replication products at 60 minutes following addition of sperm chromatin to non-treated or treated extracts were analyzed by agarose gel electrophoresis and exposure to X-ray film. Band density percentages were determined using a BioRad Molecular PhosphorImager Fx (Kodak screens, Quantity-1 software). […] 1000 sperm pronuclei/ul were added to replicating extracts containing different concentrations of MMC (lanes 3-9). Extracts were otherwise untreated or contained caffeine (lanes 6+7) or a neutralizing anti-xATR antibody (lanes 8+9). MMC-concentrations: 150 μM (lanes 3, 6, 8), 50 μM (lanes 4, 7, 9), or 5 μM (lane 5). […] Sperm chromatin was added to S-phase egg extracts. Xenopus egg extracts were either untreated (−) or aphidicolin was added (+) at the indicated time points following addition of sperm DNA: 0 minutes, pre-nuclear membrane formation; 30 minutes, beginning of replication; 60 minutes, mid-replication; 90 minutes late/post-replication; and 120 minutes, post replication. All chromatin fractions were re-isolated at 135 minutes following addition of sperm DNA, analyzed by SDS-PAGE and immunoblotted as indicated. […] Xenopus egg extracts were treated with beads coupled to preimmune serum (lanes 2, 3, and 5) or beads coupled to anti-xATRIP serum (lanes 1, 4, and 6). Sperm chromatin was added to preimmune or xATRIP depleted extracts and allowed to replicate. Xenopus egg extracts were either untreated or supplemented with aphidicolin (added at 50 minutes following addition of sperm DNA). Chromatin fractions were re-isolated at 70 minutes and assayed for the presence of xFANCD2, xFANCA, xATRIP and xORC-2 by immunoblotting. […] Xenopus egg extracts were treated with beads coupled to preimmune serum (lanes 1 and 3) or beads coupled to anti-xFANCA serum (lanes 2 and 4). Sperm chromatin was added to preimmune or xFANCA depleted extracts and allowed to replicate. Xenopus egg extracts were either untreated or supplemented with aphidicolin (added at 50 minutes following addition of sperm DNA). Chromatin fractions were re-isolated at 70 minutes and assayed for the presence of xFANCA, xATRIP and xORC-2 by immunoblotting.
# Preparation of Xenopus egg extracts: Extracts were prepared from Xenopus eggs according to the method of Murray (Murray, Methods Cell Biol. 36:581-605, 1991). In brief, eggs were de-jellied in 2% cysteine, pH 7.8, washed three times in XB buffer (10 mM KCl, 1 mM MgCl2, […] CaCl2, 10 mM HEPES, 5 mM ethylene glycol tetraacetic acid (EGTA), 1.75% w/v sucrose, pH 7.8) and washed three times in CSF-XB buffer (5 mM EGTA, 2 mM MgCl2). Eggs were crushed by low speed centrifugation (10,000 g, 10 minutes) and the cytoplasmic fraction was cleared by centrifugation (16,000 g, 20 minutes) after the addition of energy mix (15 mM creatine phosphate, 2 mM ATP, 2 mM MgCl2), cytochalasin B (10 μg/ml), cycloheximide (100 μg/ml), and PEFABLOC™ (4-(2-aminoethyl)benzenesulfonylfluoride) (100 μg/ml). In some of the examples described herein, the extracts were released from M to S phase by the addition of CaCl2 to a final concentration of 0.4 mM. In some examples, the released extracts were incubated for 20 minutes at 23° C. Where indicated, mitomycin C (5-150 μM) and caffeine (4 mM), Tautomycin (3 uM), etoposide (30 or 60 uM), and ICRF-193 (150 and 300 uM) were added to S-phase extracts immediately prior to the addition of DNA substrates or sperm chromatin and incubated for the time indicated; aphidicolin (50 ng/1 μl), was added at the time points indicated.
# [1] = high concentration of circular plasmid DNA (100 ng/ul), caffeine or geminin added
compound,measurement,setting,value
"C[C@@]12C(=O)OC(=O)[C@]1(C)[C@H]1CC[C@@H]2O1 [NP-B11, cantharidin]",shift corresponding to xFANCM phosphorylation upon addition of DNA,xFANCM,stimulates the post-translational modification of xFANCM or inhibits the dephosphorylation of xFANCM; also recorded: strongly stimulated
Cn1c(=O)c2c(ncn2C)n(C)c1=O [caffeine],MMC-induced recruitment of xFA proteins to chromatin,"xFANCA, xFANCF, xFANCD2; MMC-treated replicating extracts plus caffeine",reversed
same,activation of xFANCD2-L by circular plasmid DNA,xFANCD2; [1],not significantly affected
same,induction of Mre11-PPP in response to dsDNA fragments,xMre11; dsDNA fragments generated by HaeIII-digest,inhibited
same,induction of xMre11-PPP by circular plasmid DNA,xMre11; [1],inhibited
same,rescue of MMC-blocked replication,DNA replication; MMC 150 μM plus caffeine,could not be rescued
same,rescue of MMC-reduced replication,DNA replication; MMC-treated extracts plus caffeine (FIG. 3A top right),rescued
same,rescue of MMC-inhibited replication,DNA replication; lower MMC concentration (50 μM) plus caffeine,could be rescued
C[C@@]1(CO)[C@H](O)CC[C@@]2(C)[C@H]1CC[C@H]1C[C@@H]3C[C@@]12CC[C@]3(O)CO [aphidicolin],"chromatin binding of xFA proteins (xFANCA, xFANCF, xFANCD2)","xFANCA, xFANCF, xFANCD2",increased chromatin association
ICRF-193,induction of xFANCD2-L in the presence of circular plasmid DNA,xFANCD2,significantly blocked
"CO[C@@]12[C@H](COC(N)=O)C3=C(C(=O)C(C)=C(N)C3=O)N1C[C@@H]1N[C@@H]12 [MMC, mitomycin C]","chromatin binding of xFA proteins (xFANCA, xFANCF, xFANCD2)","xFANCA, xFANCF, xFANCD2",increased
same,replication (incorporation of radiolabeled nucleotides into nascent DNA),DNA replication; 60 minutes after addition of sperm chromatin (FIG. 3A top right),reduced
same,DNA replication,DNA replication; MMC 150 μM,significantly blocked
same,DNA replication,"DNA replication; lower MMC concentrations (50 μM, 5 μM)",less inhibited
COc1cc([C@@H]2c3cc4c(cc3[C@@H](O[C@@H]3O[C@@H]5CO[C@@H](C)O[C@H]5[C@H](O)[C@H]3O)[C@H]3COC(=O)[C@H]23)OCO4)cc(OC)c1O [etoposide],induction of xFANCD2-L in the presence of circular plasmid DNA,xFANCD2,significantly blocked
